These results are taken from US20240067668A1, “HETEROARYL DERIVATIVE COMPOUND AND USE THEREOF” (VORONOI INC., priority 2020, published 2024).

What is called IC50 is the concentration needed to halve the response being measured. Low values mean inhibition by little substance, high ones a need for much substance. One may read the GI50 as the concentration that inhibits growth by half. Read a high GI50 as less potent growth inhibition.

One assay concerns the target EGFR Del19/T790M/C797S (Homo sapiens, UniProt P00533, C797S/T790M, form not given). Put plainly: Enzyme IC50, EGFR Del19/T790M/C797S. In kind it is biochemical.
For assay [1], the system named is BaF3-EGFR (Del19/T790M/C797S) cells. Put plainly: Inhibitory activity on Ba/F3 cell proliferation (CellTiter-Glo, 72 hours). Format: cell-based. As to conditions: Ba/F3 cells expressing EGFR Del19/T790M/C797S. The protocol: (§1) The following experiments were performed to evaluate the inhibitory activity of the compound represented by Chemical Formula 1 according to the present invention on the proliferation of Ba/F3 cells expressing EGFR mutants.
(§2) BaF3-EGFR (WT) and BaF3-EGFR (Del19/T790M/C797S) cells were seeded in a clear bottom white 96-well plate at a density of 3×10^3/100 μl/well, and then 0.5 μl/well of the culture medium, containing the compounds at 12 concentrations (0.00001-2 mM) serially diluted in 3 folds and the DMSO control, was added to a final concentration of 0.00005-10 μM, followed by culturing in a 37° C. CO2 incubator for 72 hours. After 72 hours, the plates treated with the compounds were taken out, treated with 100 μl/well of CellTiter-Glo® 2.0 Assay (Promega) solution, and mixed well. After mixing well at room temperature for about 10 minutes, […] was measured using a microplate reader. As to Data, GI50 (μM) values were calculated using GraphPad Prism 8.3.0 (GraphPad software Inc., San Diego) as percentages in proportion to vehicle-based treated cells. The result values were calculated as a cell growth rate (%) compared to the control group. A graph was created using the GraphPad Prism version 5.0 program, and GI50 (μM) values were calculated.

The subject of the next assay is BaF3-EGFR (WT) cells. The description is as above. In kind it is cell-based. As to conditions: Ba/F3 cells expressing EGFR WT. The protocol: as §1, §2

Structures are written as SMILES.

Chain of EGFR Del19/T790M/C797S (P00533 25-1210 T790M/C797S, form open): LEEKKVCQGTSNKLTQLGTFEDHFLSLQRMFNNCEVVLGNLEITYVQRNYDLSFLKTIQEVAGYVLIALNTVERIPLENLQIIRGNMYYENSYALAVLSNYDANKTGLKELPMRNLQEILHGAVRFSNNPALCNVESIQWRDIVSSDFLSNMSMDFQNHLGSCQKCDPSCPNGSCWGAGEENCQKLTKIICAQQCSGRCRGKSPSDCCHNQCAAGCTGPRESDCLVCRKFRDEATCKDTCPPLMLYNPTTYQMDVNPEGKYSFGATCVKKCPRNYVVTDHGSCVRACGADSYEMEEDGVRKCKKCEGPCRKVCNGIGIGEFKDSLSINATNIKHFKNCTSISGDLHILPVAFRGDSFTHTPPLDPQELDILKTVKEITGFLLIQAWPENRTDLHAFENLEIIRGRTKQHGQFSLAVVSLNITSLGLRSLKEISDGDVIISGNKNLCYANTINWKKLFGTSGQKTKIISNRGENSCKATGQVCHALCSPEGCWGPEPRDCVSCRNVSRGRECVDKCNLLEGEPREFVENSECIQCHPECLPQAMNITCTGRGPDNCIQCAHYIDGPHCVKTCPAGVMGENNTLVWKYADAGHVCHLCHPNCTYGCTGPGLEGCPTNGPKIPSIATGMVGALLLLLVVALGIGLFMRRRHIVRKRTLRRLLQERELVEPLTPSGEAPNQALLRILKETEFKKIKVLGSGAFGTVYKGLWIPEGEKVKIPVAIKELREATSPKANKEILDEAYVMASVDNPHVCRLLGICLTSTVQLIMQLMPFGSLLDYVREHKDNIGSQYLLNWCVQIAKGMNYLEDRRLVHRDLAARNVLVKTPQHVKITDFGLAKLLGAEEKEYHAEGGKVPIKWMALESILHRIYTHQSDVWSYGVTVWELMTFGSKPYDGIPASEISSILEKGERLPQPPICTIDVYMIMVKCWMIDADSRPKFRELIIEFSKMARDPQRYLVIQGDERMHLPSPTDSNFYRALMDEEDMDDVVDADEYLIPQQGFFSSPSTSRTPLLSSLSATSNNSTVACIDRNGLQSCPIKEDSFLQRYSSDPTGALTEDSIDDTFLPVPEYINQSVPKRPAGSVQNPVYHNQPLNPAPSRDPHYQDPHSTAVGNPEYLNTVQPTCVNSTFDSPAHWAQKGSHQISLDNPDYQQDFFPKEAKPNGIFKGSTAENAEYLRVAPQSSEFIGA

On EGFR Del19/T790M/C797S, `CN1CCN(c2cc(OCC(F)(F)F)c(Nc3nc(Nc4ccc5nccnc5c4P(C)(C)=O)c4cc[nH]c4n3)cc2-c2cnn(C)c2)CC1` [Example 1, dimethyl (6-((2-((5-(1-methyl-1H-pyrazol-4-yl)-4-(4-methylpiperazin-1-yl)-2-(2,2,2-trifluoroethoxy)phenyl)amino)-7H-pyrrolo[2,3-d]pyrimidin-4-yl)amino)quinoxalin-5-yl)phosphine oxide] gave a half-maximal inhibitory concentration (IC50) of no more than 0.05 µM. For the same compound, the GI50 in assay [1] was 0.05 to 0.1 µM; in the assay with BaF3-EGFR (WT) cells, greater than 0.1 µM.

In turn, `Cn1cc(-c2cc(Nc3nc(Nc4ccc5nccnc5c4P(C)(C)=O)c4cc[nH]c4n3)c(OCC(F)(F)F)cc2N2CCOCC2)cn1` [Example 2, dimethyl (6-((2-((5-(1-methyl-1H-pyrazol-4-yl)-4-morpholino-2-(2,2,2-trifluoroethoxy)phenyl)amino)-7H-pyrrolo[2,3-d]pyrimidin-4-yl)amino)quinoxalin-5-yl) phosphine oxide] had a half-inhibitory concentration (IC50) at EGFR Del19/T790M/C797S of no more than 0.05 µM. In addition, the GI50 in assay [1] is no more than 0.05 µM; with BaF3-EGFR (WT) cells, greater than 0.1 µM.

Compound `Cn1cc(-c2cc(Nc3nc(Nc4ccc5nccnc5c4P(C)(C)=O)c4cc[nH]c4n3)c(OCC(F)(F)F)cc2F)cn1` [Example 3, (6-((2-((4-fluoro-5-(1-methyl-1H-pyrazol-4-yl)-2-(2,2,2-trifluoroethoxy)phenyl)amino)-7H-pyrrolo[2,3-d]pyrimidin-4-yl)amino)quinoxalin-5-yl) dimethyl-phosphine oxide] registered an IC50 on EGFR Del19/T790M/C797S of no more than 0.05 µM. The GI50 (in assay [1]; with BaF3-EGFR (WT) cells) was greater than 0.1 µM in each case.

For the compound `CN1CCN(C2CCN(c3cc(OCC(F)(F)F)c(Nc4nc(Nc5ccc6nccnc6c5P(C)(C)=O)c5cc[nH]c5n4)cc3-c3cnn(C)c3)CC2)CC1` [Example 4, dimethyl (6-((2-((5-(1-methyl-1H-pyrazol-4-yl)-4-(4-(4-methylpiperazin-1-yl)piperidin-1-yl)-2-(2,2,2-trifluoroethoxy)phenyl)amino)-7H-pyrrolo[2,3-d]pyrimidin-4-yl)amino)quinoxalin-5-yl) phosphine oxide], the IC50 at EGFR Del19/T790M/C797S is no more than 0.05 µM. Also, the concentration for 50% growth inhibition (GI50) in assay [1] was 0.05 to 0.1 µM; with BaF3-EGFR (WT) cells, greater than 0.1 µM.

Compound `Cn1cc(-c2ccc(OCC(F)(F)F)c(Nc3nc(Nc4ccc5nccnc5c4P(C)(C)=O)c4cc[nH]c4n3)c2)cn1` [Example 5, dimethyl (6-((2-((5-(1-methyl-1H-pyrazol-4-yl)-2-(2,2,2-trifluoroethoxy)phenyl)amino)-7H-pyrrolo[2,3-d]pyrimidin-4-yl)amino)quinoxalin-5-yl)phosphine oxide] registered an IC50 against EGFR Del19/T790M/C797S of 0.05 to 0.1 µM. The figures for the GI50 (in assay [1]; in the assay on BaF3-EGFR (WT) cells) were greater than 0.1 µM and 0.05 to 0.1 µM, respectively.

As to `Cn1cc(-c2cc(Nc3nc(Nc4ccc5nccnc5c4P(C)(C)=O)c4cc[nH]c4n3)c(OCC(F)(F)F)cc2N2CCC(N3CCOCC3)CC2)cn1` [Example 6, dimethyl (6-((2-((5-(1-methyl-1H-pyrazol-4-yl)-4-(4-morpholino-piperidin-1-yl)-2-(2,2,2-trifluoroethoxy)phenyl)amino)-7H-pyrrolo[2,3-d]pyrimidin-4-yl)amino)quinoxalin-5-yl)phosphine oxide], the IC50 at EGFR Del19/T790M/C797S was no more than 0.05 µM. For the same compound, the GI50 in assay [1] was no more than 0.05 µM; in the assay on BaF3-EGFR (WT) cells, greater than 0.1 µM.

`Cc1cc(Nc2nc(Nc3ccc4nccnc4c3P(C)(C)=O)c3cc[nH]c3n2)c(OCC(F)(F)F)cc1N1CCC(N2CCN(C)CC2)CC1` [Example 8, dimethyl (6-((2-((5-methyl-4-(4-(4-methylpiperazin-1-yl)piperidin-1-yl)-2-(2,2,2-trifluoroethoxy)phenyl)amino)-7H-pyrrolo[2,3-d]pyrimidin-4-yl)amino)quinoxalin-5-yl)phosphine oxide]: the 50% inhibitory concentration (IC50) at EGFR Del19/T790M/C797S was no more than 0.05 µM. Moreover, the figures for the GI50 (in assay [1]; in the assay on BaF3-EGFR (WT) cells) were no more than 0.05 µM and greater than 0.1 µM, respectively.

Compound `Cc1cc(Nc2nc(Nc3ccc4nccnc4c3P(C)(C)=O)c3cc[nH]c3n2)c(OCC(F)(F)F)cc1N1CCN(C)CC1` [Example 9, dimethyl (6-((2-((5-methyl-4-(4-methylpiperazin-1-yl)-2-(2,2,2-trifluoroethoxy)phenyl)amino)-7H-pyrrolo[2,3-d]pyrimidin-4-yl)amino)quinoxalin-5-yl)phosphine oxide] came in with an IC50 on EGFR Del19/T790M/C797S of no more than 0.05 µM. Moreover, the GI50 (in assay [1]; in the assay on BaF3-EGFR (WT) cells) was greater than 0.1 µM throughout.

In the case of `Cc1cc(Nc2nc(Nc3cnc4ccccc4c3P(C)(C)=O)c3cc[nH]c3n2)c(OCC(F)(F)F)cc1N1CCC(N2CCN(C)CC2)CC1` [Example 13, dimethyl (3-((2-((5-methyl-4-(4-(4-methylpiperazin-1-yl)piperidin-1-yl)-2-(2,2,2-trifluoroethoxy)phenyl)amino)-7H-pyrrolo[2,3-d]pyrimidin-4-yl)amino)quinolin-4-yl)phosphine oxide], the half-inhibitory concentration (IC50) at EGFR Del19/T790M/C797S was no more than 0.05 µM. In addition, the GI50 (in assay [1]; with BaF3-EGFR (WT) cells) was greater than 0.1 µM throughout.

Compound `COc1cc(N2CCN(C)CC2)c(-c2cnn(C)c2)cc1Nc1nc(Nc2ccc3nccnc3c2P(C)(C)=O)c2cc[nH]c2n1` [Example 21, (6-((2-((2-methoxy-5-(1-methyl-1H-pyrazol-4-yl)-4-(4-methylpiperazin-1-yl)phenyl)amino)-7H-pyrrolo[2,3-d]pyrimidin-4-yl)amino)quinoxalin-5-yl) dimethyl-phosphine oxide] yielded an IC50 at EGFR Del19/T790M/C797S of no more than 0.05 µM. The GI50 in assay [1] was no more than 0.05 µM; in the assay on BaF3-EGFR (WT) cells, greater than 0.1 µM.

In turn, `COc1cc(N2CCN(C3CCCC3)CC2)c(-c2cnn(C)c2)cc1Nc1nc(Nc2ccc3nccnc3c2P(C)(C)=O)c2cc[nH]c2n1` [Example 22, (6-((2-((4-(4-cyclopentyl-piperazin-1-yl)-2-methoxy-5-(1-methyl-1H-pyrazol-4-yl)phenyl)amino)-7H-pyrrolo[2,3-d]pyrimidin-4-yl)amino)quinoxalin-5-yl) dimethyl-phosphine oxide] yielded a concentration for half-maximal inhibition (IC50) against EGFR Del19/T790M/C797S of no more than 0.05 µM. Also, the GI50 is no more than 0.05 µM in assay [1] and greater than 0.1 µM with BaF3-EGFR (WT) cells.

In turn, `COc1cc(N2C[C@@H](C)O[C@@H](C)C2)c(-c2cnn(C)c2)cc1Nc1nc(Nc2ccc3nccnc3c2P(C)(C)=O)c2cc[nH]c2n1` [Example 23, (6-((2-((4-((2s, 6R)-2,6-dimethyl-morpholino)-2-methoxy-5-(1-methyl-1H-pyrazol-4-yl)phenyl)amino)-7H-pyrrolo[2,3-d]pyrimidin-4-yl)amino)quinoxalin-5-yl)dimethyl-phosphine oxide] yielded an IC50 against EGFR Del19/T790M/C797S of no more than 0.05 µM. For the same compound, the GI50 was no more than 0.05 µM in assay [1] and greater than 0.1 µM in the assay on BaF3-EGFR (WT) cells.

The compound `COc1cc(N2CCC(N3CCN(C)CC3)CC2)c(-c2cnn(C)c2)cc1Nc1nc(Nc2ccc3nccnc3c2P(C)(C)=O)c2cc[nH]c2n1` [Example 24, (6-((2-((2-methoxy-5-(1-methyl-1H-pyrazol-4-yl)-4-(4-(4-methylpiperazin-1-yl)piperidin-1-yl)phenyl)amino)-7H-pyrrolo[2,3-d]pyrimidin-4-yl)amino)quinoxalin-5-yl)dimethyl-phosphine oxide] showed an IC50 on EGFR Del19/T790M/C797S of no more than 0.05 µM. The GI50 is no more than 0.05 µM in assay [1] and greater than 0.1 µM in the assay on BaF3-EGFR (WT) cells.

For `COc1cc(N2CCN(C(C)(C)CF)CC2)c(-c2cnn(C)c2)cc1Nc1nc(Nc2ccc3nccnc3c2P(C)(C)=O)c2cc[nH]c2n1` [Example 109, (6-((2-((4-(4-(1-fluoro-2-methylpropan-2-yl)piperazin-1-yl)-2-methoxy-5-(1-methyl-1H-pyrazol-4-yl)phenyl)amino)-7H-pyrrolo[2,3-d]pyrimidin-4-yl)amino)quinoxalin-5-yl)dimethyl-phosphine oxide], the GI50 in assay [1] was no more than 0.05 µM; in the assay with BaF3-EGFR (WT) cells it was greater than 0.1 µM.

Regarding `Cc1cc(Nc2nc(Nc3ccc4nccnc4c3P(C)(C)=O)c3cc[nH]c3n2)c2c(c1N1CCN(C)CC1)CCO2` [Example 121, dimethyl (6-((2-((5-methyl-4-(4-methylpiperazin-1-yl)-2,3-dihydrobenzo-furan-7-yl)amino)-7H-pyrrolo[2,3-d]pyrimidin-4-yl)amino)quinoxalin-5-yl)phosphine oxide], the GI50 (in assay [1]; in the assay with BaF3-EGFR (WT) cells) was greater than 0.1 µM each time.

For the compound `CN1CCN(c2c(-c3cnn(C)c3)cc(Nc3nc(Nc4ccc5nccnc5c4P(C)(C)=O)c4cc[nH]c4n3)c3c2OCO3)CC1` [Example 129, dimethyl (6-((2-((6-(1-methyl-1H-pyrazol-4-yl)-7-(4-methylpiperazin-1-yl)benzo[d] [1,3]dioxol-4-yl)amino)-7H-pyrrolo[2,3-d]pyrimidin-4-yl)amino)quinoxalin-5-yl)phosphine oxide], the GI50 in assay [1] was no more than 0.05 µM; in the assay on BaF3-EGFR (WT) cells, greater than 0.1 µM.

`CN1CCN(c2c(-c3cnn(C)c3)cc(Nc3nc(Nc4ccc5nccnc5c4P(C)(C)=O)c4cc[nH]c4n3)c3c2OCCO3)CC1` [Example 130, dimethyl (6-((2-((7-(1-methyl-1H-pyrazol-4-yl)-8-(4-methylpiperazin-1-yl)-2,3-dihydrobenzo [b][1,4]dioxin-5-yl)amino)-7H-pyrrolo[2,3-d]pyrimidin-4-yl)amino)quinoxalin-5-yl)phosphine oxide]: the GI50 is no more than 0.05 µM in assay [1] and greater than 0.1 µM in the assay with BaF3-EGFR (WT) cells.
